Data taken from patent US20220340983A1, “SYSTEMS AND ASSAYS FOR IDENTIFYING PU.1 INHIBITORS” (Massachustts Institute of Technology, priority 2019, published 2022).

Experiments:
PU.1 = target: T1, PU.1 (Mus musculus, UniProt P17433); assay: Luciferase assay (luminescence) in BV2 PU.1-Luciferase reporter cells; type: cell-based; conditions: luminescence reduction in BV2 PU.1-Luciferase cells, concentration-response, Hill's equation
T1 construct: endogenous in cells; host or cells: BV2 PU.1-Luciferase (mouse microglial BV2 with a 5xLBB-luciferase reporter integrated at ROSA26)
Excerpt: PU.1 belongs to a group of transcription factors that all bind to the middle 5′-GGAA-3′ sequence. The flanking A/T rich sequence is crucial for conferring PU.1 selective binding. The flanking sequence requires unique structural properties of PU.1 and can therefore be targeted by drugs acting as allosteric inhibitors that prevent PU.1 from binding to the LBB. In order to achieve robust PU.1 binding, five tandem copies of the LBBs (5×LBB) were inserted into the luciferase promoter of the pGL4.23 plasmid. The region containing the five LBBs (5×LBB) was then subcloned into the pROSA26-1 plasmid (together with a PGKneo bpA plasmid for Neomycin/G418 resistance) that allows stable integration in chromosome 6 of the immortalized mouse microglial BV2 cell line (FIG. 2B). The stable cell line was created by selection with G418.
The BV2 PU.1-Luciferase cells (referred to as “cells” from here onward) were plated into a 384-well plate, using an automatic dispenser, 2000 cells per well in 30 μL of media composed of RPMI (Sigma-Aldrich), 10% FBS, 1% PenStrep (50 mg/mL) and 1% G418 (50 mg/mL) was plated. A robotic arm was used to transfer compounds in a 384-well format using a pin array into the plate containing the cells (here, 33 nL was transferred from a drug library containing 10 mM concentration of drugs for a final concentration of 10 μM per well). For reproducibility, each pin array with 384 compounds was added to 4 plates of cells. […] Subsequently, automatic of 30 μL of BrightGlo (Promega) was dispensed into 2 of the 4 plates, in order to lyse the cells and drive the luminescence reaction whereafter the luminescence intensity was measured by a plate reader (Perkin Elmer EnVision). The two other plates were fixed by automatically dispensing 30 μL of 10% formaldehyde with 2μL Hoechst per 1 mL formaldehyde which were left at room temperature for one hour, followed by plate reading (Acumen (TTPLabTech)). A compound transfer and treatment would be repeated if reproducibility between the luminescence plates and/or the fixed Hoechst plates was lacking. The drugs were selected and ranked according to the criteria described in FIG. 13. Luminescence values used were corrected for crosstalk. Hoechst values were total fluorescence area per well. Determination of a positive hit considered both the reduction of luminescence as well as a possible confounding reduction in cell viability. The formula used was y=(value−meanvalue)/stddev. […] Compounds were excluded if cell viability was reduced >2 standard deviations from the mean, using the same formula. The positive hits were then validated in multiple steps in order to identify true PU.1 inhibitors.
The degree of luminescence reduction of the hits was plotted with significant effective area under the curve in order to obtain an IC50.

[1] = tested on: PU.1 dependent gene expression; assay: RT-qPCR of mRNA levels in BV2 PU.1-Luciferase cells (validation round 3); type: cell-based, mouse; conditions: 2-day treatment
Description: The Asinex1 and ChemDiv6 libraries contain molecules with unknown biological properties, but with low toxicity, high stability, and a broad structural diversity used to generate structure-activity-relationships (SAR) of the PU.1 inhibitors. […] In order to obtain the SAR, three rounds of validation were performed. In round 1, false-positive, non-specific luciferase quencher molecules were excluded using the commercially available HEK293 CMV-Luciferase line that constitutively expresses luciferase under the CMV promoter. In round 2, weak (non-significant) hits were eliminated according to degree of PU.1 inhibition in the absence of cell death. In round 3, drugs were selected that reduce PU.1-dependent gene expression with RT-qPCR.

Row | SMILES | IC50 (PU.1) [nM] | mRNA levels Apoe [1] | mRNA levels IL1β [1] | mRNA levels Lucif. [1] | mRNA levels Spi1 [1] | mRNA levels Trem2 [1] | mRNA levels Tyrobp [1]
1 | CC(C)(C)OC(=O)N1CCC(c2c(C(=O)Nc3ccc4c(c3)OCCO4)cnn2-c2ccccc2)CC1 [Compound 2C12] | 2930 | 0.731 multiples of 1× | 0.486 multiples of 1× | 0.597 multiples of 1× | 0.736 multiples of 1× | 0.752 multiples of 1× | 0.713 multiples of 1×
2 | CC(C)c1ccc(C2Sc3ccccc3NC3=C2C(=O)c2ccccc23)cc1 (stereo not shown) [Compound 1B5] | 2310 | 0.797 multiples of 1× | 0.843 multiples of 1× | 0.491 multiples of 1× | 0.831 multiples of 1× | 0.775 multiples of 1× | 0.697 multiples of 1×
3 | CCOC(=O)Cn1c(=O)n(C2CCCCC2)c2nc(-c3cccc(F)c3)nc(C(N)=O)c21 [Compound 2E4] | 136 | 0.841 multiples of 1× | 1.077 multiples of 1× | 0.404 multiples of 1× | 1.377 multiples of 1× | 0.806 multiples of 1× | 1.141 multiples of 1×
4 | CCOc1ccc(-c2nc(CSCC(=O)NCc3ccc(Cl)cc3)c(C)o2)cc1 [Compound 2H3] | 734 | 1.111 multiples of 1× | 0.915 multiples of 1× | 0.722 multiples of 1× | 0.897 multiples of 1× | 0.986 multiples of 1× | 1.003 multiples of 1×
5 | CCCCN(C)C(=O)C1CCCN(c2ncnc3onc(C)c23)C1 (stereo not shown) [Compound 2D5] | 2620 | 1.400 multiples of 1× | 0.287 multiples of 1× | 0.359 multiples of 1× | 1.015 multiples of 1× | 1.852 multiples of 1× | 2.257 multiples of 1×
6 | Cc1cccc(Cn2cccc(C(=O)Nc3nc4ccccc4s3)c2=O)c1 [Compound 2F11] | 303 | 1.005 multiples of 1× | 1.086 multiples of 1× | 0.640 multiples of 1× | 0.943 multiples of 1× | 1.012 multiples of 1× | 1.002 multiples of 1×
7 | Cc1ccc(C)c(N2CCN(C(=O)C3CCN(c4nc(-c5ccc(C(C)C)cc5)no4)CC3)CC2)c1 [Compound 2E10] | 1340 | 1.244 multiples of 1× | 1.082 multiples of 1× | 0.611 multiples of 1× | 1.133 multiples of 1× | 1.253 multiples of 1× | 1.158 multiples of 1×
8 | Cc1nc(-c2ccc(S(=O)(=O)Nc3ccc(C)c(N(C)C)c3)cc2)co1 [Compound 2F3] | 2290 | 1.011 multiples of 1× | 0.386 multiples of 1× | 0.496 multiples of 1× | 0.733 multiples of 1× | 0.790 multiples of 1× | 0.854 multiples of 1×
9 | N#CC(=CNc1ccc2c(c1)OCCO2)c1nc2ccccc2[nH]1 [Compound A09] | 1480 | 0.941 multiples of 1× | 0.644 multiples of 1× | 0.513 multiples of 1× | 0.931 multiples of 1× | 0.879 multiples of 1× | 0.821 multiples of 1×

Continued, in another order:

Row | IC50 (PU.1) [nM] | SMILES | mRNA levels Apoe [1] | mRNA levels IL1β [1] | mRNA levels Lucif. [1] | mRNA levels Spi1 [1] | mRNA levels Trem2 [1] | mRNA levels Tyrobp [1]
10 | 2650 | Cc1c(Cl)cccc1-n1ncc(C(=O)Nc2ccc3c(c2)OCCO3)c1C1CCN(C(=O)OC(C)(C)C)CC1 [Compound 2D3] | 0.980 multiples of 1× | 0.960 multiples of 1× | 0.480 multiples of 1× | 0.922 multiples of 1× | 0.987 multiples of 1× | 0.950 multiples of 1×
11 | 8050 | Cc1ccc(C(=O)Nc2nnc(SCc3cc(=O)c4c(C)ccc(C)c4[nH]3)s2)cc1 [Compound 2E7] | 1.076 multiples of 1× | 0.887 multiples of 1× | 0.623 multiples of 1× | 0.926 multiples of 1× | 0.854 multiples of 1× | 0.927 multiples of 1×
12 | 876 | CCc1ccc(CNC(=O)C2CCCN(c3nn4cc(-c5ccc(F)cc5)nc4s3)C2)cc1 (stereo not shown) [Compound 2C2] | 1.035 multiples of 1× | 0.954 multiples of 1× | 0.504 multiples of 1× | 1.034 multiples of 1× | 1.031 multiples of 1× | 1.130 multiples of 1×
13 | 38 | CCOc1ccc(S(=O)(=O)NCc2ccncc2)cc1C(C)C [Compound D09] | 0.390 multiples of 1× | 0.938 multiples of 1× | 0.360 multiples of 1× | 0.781 multiples of 1× | 0.437 multiples of 1× | 0.496 multiples of 1×
14 | 1420 | COc1ccc(NS(=O)(=O)c2ccc3c(c2)CCCN3C(=O)C2CCC2)cc1OC [Compound 2F7] | 1.146 multiples of 1× | 0.460 multiples of 1× | 0.216 multiples of 1× | 0.936 multiples of 1× | 1.442 multiples of 1× | 1.498 multiples of 1×
15 | 967 | CCCCN(c1ccccc1)c1ncnc2c1cnn2-c1ccc(Cl)cc1 [Compound 2G8] | 1.119 multiples of 1× | 1.362 multiples of 1× | 0.497 multiples of 1× | 1.179 multiples of 1× | 1.237 multiples of 1× | 1.469 multiples of 1×
16 | 2430 | Cc1ccc(-c2nc3cc(C(C)C)ccc3o2)cc1NC(=O)c1cc([N+](=O)[O-])ccc1N1CCOCC1 [Compound 1C4] | 0.883 multiples of 1× | 0.813 multiples of 1× | 0.290 multiples of 1× | 1.142 multiples of 1× | 0.928 multiples of 1× | 1.197 multiples of 1×
17 | 2570 | CC(C)c1ccc(NC(=O)Cn2c(=O)oc3cc(S(=O)(=O)N4CCCC4)ccc32)cc1 [Compound 2A9] | 0.988 multiples of 1× | 1.048 multiples of 1× | 0.391 multiples of 1× | 1.073 multiples of 1× | 0.958 multiples of 1× | 1.059 multiples of 1×
18 | 3 | C[C@@H]1C[C@H]2[C@@H]3CCC4=CC(=O)C=C[C@]4(C)[C@@]3(Cl)[C@@H](O)C[C@]2(C)[C@@]1(O)C(=O)CCl [Mometasone, reference compound] | 1.444 multiples of 1× | 0.531 multiples of 1× | 0.520 multiples of 1× | 1.016 multiples of 1× | 1.051 multiples of 1× | 1.343 multiples of 1×
19 | 258 | COc1cccc2cc(C(=O)Nc3ccc(N4CCNCC4)cc3)c(=O)oc12 [Compound D10] | 1.251 multiples of 1× | 1.347 multiples of 1× | 0.622 multiples of 1× | 1.072 multiples of 1× | 1.342 multiples of 1× | 1.593 multiples of 1×
